How the values were obtained:
PA4175 prpL = test: DNA microarray, gene expression in ajoene treated P. aeruginosa cultures; format: cell-based; conditions: E:Z 1:4, OD600 2.0
Description: (§1) DNA microarray analysis was used to identify genes regulated by ajoene treatment. As a reference we have used the QS regulon previously identified by Hentzer et al., [M. Hentzer et al., EMBO J., 2003, 22, p. […] Exponential growing P. aeruginosa cultures were treated with the following four concentrations of ajoene; 10 μg/ml (42.7 μM), 20 μg/ml (85.4 μM), 40 μg/ml (170.8 μM) and 80 μg/ml (341.6 μM). (E,Z) ajoene having an E:Z ratio of 1:4 was used. […] The samples were retrieved at an OD600 nm of 2.0 (optical density) because previous investigations have shown the highest activity among the QS genes at that cell density. Gene expression of the treated cultures was compared to an untreated control.

PA2570 pa1L = test: as above; format: cell-based; conditions: pa1L PA2570 (LecA), E:Z 1:4, OD600 2.0
Description: as §1

PA1871 lasA = test: as above; format: cell-based; conditions: E:Z 1:4, OD600 2.0
Description: as §1

lasB = test: as above; format: cell-based; conditions: ajoene 10-80 μg/ml
Description: as §1

PA3478 rhlB = test: as above; format: cell-based; conditions: E:Z 1:4, OD600 2.0
Description: as §1

PA3479 rhlA = test: as above; format: cell-based; conditions: E:Z 1:4, OD600 2.0
Description: as §1

PA4141 = test: as above; format: cell-based; conditions: E:Z 1:4, OD600 2.0
Description: as §1

PA0852 cbpD = test: as above; format: cell-based; conditions: E:Z 1:4, OD600 2.0
Description: as §1

PA2300 chic = test: as above; format: cell-based; conditions: E:Z 1:4, OD600 2.0
Description: as §1

PA2069 = test: as above; format: cell-based; conditions: E:Z 1:4, OD600 2.0
Description: as §1

PA4142 = test: as above; format: cell-based; conditions: E:Z 1:4, OD600 2.0
Description: as §1

PA2146 = test: as above; format: cell-based; conditions: E:Z 1:4, OD600 2.0
Description: as §1

P. aeruginosa = conditions: E:Z=1:4 isomer used; cited from earlier work
[1] = tested on: rhamnolipid production of planktonic grown P. aeruginosa; test: Rhamnolipid concentration in cultures quantified by LC-MS; format: cell-based; conditions: for rhamnolipid content: OD=1.5 (FIG. 4)
From the text: Samples retrieved at OD600=1.5 (dark grey bars), and at OD600=2.0 (light grey bars). Data represent the average of tree individual experiments. Error bars are mean±SD.
To exemplify the actual efficacy of ajoene in inhibiting synthesis of one of the major virulence factors, the concentration of rhamnolipid present in the cultures grown for DNA array and RT-PCR where directly quantified by LC-MS. The production of rhamnolipids is initiated early in stationary phase co-ordinately regulated by the Rhl QS system encoded by the rhlA, rhlB and rhlC genes (PA3479, PA3478 and PA1131) [V. E. Wagner et al., J Bacteriol., 2003, 185, p. 2080-2095 and R. Rahim et al., Mol Microbiol., 2001, 40, p. 708-718]. Samples where therefore retrieved at an OD600 nm of 1.5 and 2.0 to monitor rhamnolipid production before and after the synthesis was fully initiated. […] This concentration therefore almost completely blocks rhamnolipid synthesis. (E,Z) ajoene having an E:Z ratio of 1:4 was used.

P. aeruginosa genes = test: DNA microarray, number of genes regulated by ajoene treatment; format: cell-based
Description: as §1
In general, there was only a small number of genes that were down regulated more than 5 fold by the four different concentrations of ajoene; 0 genes at 10 μg/ml ajoene, 0 genes at 20 μg/ml ajoene, 2 genes at 40 μg/ml ajoene and 11 genes at 80 μg/ml ajoene. […] According to our experimental settings, expression of 10 out of the total number of 163 QS controlled P. aeruginosa genes (according to Hentzer et al., [M. Hentzer et al., EMBO J., 2003, 22, p. 3803-3815]) was down regulated by the ajoene treatments. A concentration of 80 μg/ml ajoene affects expression of 11 out of a total of 5570 P. aeruginosa genes. Ajoene is therefore highly specific for a subclass of QS controlled genes (Table 3).

Structure (SMILES): C=CCSSC=CC[S+]([O-])CC=C (stereo not shown) [ajoene, (E,Z)-4,5,9-trithiadodeca-1,6,11-triene-9-oxide]
- fold change in gene expression compared to an untreated control (PA4175 prpL; [Ajoene] 10 μg/ml): −3.7 fold
- fold change in gene expression compared to an untreated control (PA4175 prpL; [Ajoene] 20 μg/ml): −3.3 fold
- fold change in gene expression compared to an untreated control (PA4175 prpL; [Ajoene] 40 μg/ml): −5.3 fold
- fold change in gene expression compared to an untreated control (PA4175 prpL; [Ajoene] 80 μg/ml): −6.8 fold
- fold change in gene expression compared to an untreated control (PA2570 pa1L; [Ajoene] 10 μg/ml): −1.8 fold
- fold change in gene expression compared to an untreated control (PA2570 pa1L; [Ajoene] 20 μg/ml): −2.0 fold
- fold change in gene expression compared to an untreated control (PA2570 pa1L; [Ajoene] 40 μg/ml): −3.3 fold
- fold change in gene expression compared to an untreated control (PA2570 pa1L; [Ajoene] 80 μg/ml): −6.3 fold
- fold change in gene expression compared to an untreated control (PA1871 lasA; [Ajoene] 10 μg/ml): −2.6 fold
- fold change in gene expression compared to an untreated control (PA1871 lasA; [Ajoene] 20 μg/ml): −2.2 fold
- fold change in gene expression compared to an untreated control (PA1871 lasA; [Ajoene] 40 μg/ml): −3.0 fold
- fold change in gene expression compared to an untreated control (PA1871 lasA; [Ajoene] 80 μg/ml): −8.7 fold
- down regulation of lasB (DNA microarray) (lasB): not more than 5 fold
- fold change in gene expression compared to an untreated control (PA3478 rhlB; [Ajoene] 10 μg/ml): −2.6 fold
- fold change in gene expression compared to an untreated control (PA3478 rhlB; [Ajoene] 20 μg/ml): −2.0 fold
- fold change in gene expression compared to an untreated control (PA3478 rhlB; [Ajoene] 40 μg/ml): −3.3 fold
- fold change in gene expression compared to an untreated control (PA3478 rhlB; [Ajoene] 80 μg/ml): −8.7 fold
- fold change in gene expression compared to an untreated control (PA3479 rhlA; [Ajoene] 10 μg/ml): −2.2 fold
- fold change in gene expression compared to an untreated control (PA3479 rhlA; [Ajoene] 20 μg/ml): −1.5 fold
- fold change in gene expression compared to an untreated control (PA3479 rhlA; [Ajoene] 40 μg/ml): −2.6 fold
- fold change in gene expression compared to an untreated control (PA3479 rhlA; [Ajoene] 80 μg/ml): −8.8 fold
- fold change in gene expression compared to an untreated control (PA4141; [Ajoene] 10 μg/ml): −1.0 fold
- fold change in gene expression compared to an untreated control (PA4141; [Ajoene] 20 μg/ml): −1.1 fold
- fold change in gene expression compared to an untreated control (PA4141; [Ajoene] 40 μg/ml): −1.3 fold
- fold change in gene expression compared to an untreated control (PA4141; [Ajoene] 80 μg/ml): −5.4 fold
- fold change in gene expression compared to an untreated control (PA0852 cbpD; [Ajoene] 10 μg/ml): −2.8 fold
- fold change in gene expression compared to an untreated control (PA0852 cbpD; [Ajoene] 20 μg/ml): −2.5 fold
- fold change in gene expression compared to an untreated control (PA0852 cbpD; [Ajoene] 40 μg/ml): −3.9 fold
- fold change in gene expression compared to an untreated control (PA0852 cbpD; [Ajoene] 80 μg/ml): −6.9 fold
- fold change in gene expression compared to an untreated control (PA2300 chic; [Ajoene] 10 μg/ml): −2.5 fold
- fold change in gene expression compared to an untreated control (PA2300 chic; [Ajoene] 20 μg/ml): −2.1 fold
- fold change in gene expression compared to an untreated control (PA2300 chic; [Ajoene] 40 μg/ml): −5.1 fold
- fold change in gene expression compared to an untreated control (PA2300 chic; [Ajoene] 80 μg/ml): −24.6 fold
- fold change in gene expression compared to an untreated control (PA2069; [Ajoene] 10 μg/ml): −2.3 fold
- fold change in gene expression compared to an untreated control (PA2069; [Ajoene] 20 μg/ml): −2.4 fold
- fold change in gene expression compared to an untreated control (PA2069; [Ajoene] 40 μg/ml): −4.0 fold
- fold change in gene expression compared to an untreated control (PA2069; [Ajoene] 80 μg/ml): −5.3 fold
- fold change in gene expression compared to an untreated control (PA4142; [Ajoene] 10 μg/ml): −2.0 fold
- fold change in gene expression compared to an untreated control (PA4142; [Ajoene] 20 μg/ml): −2.2 fold
- fold change in gene expression compared to an untreated control (PA4142; [Ajoene] 40 μg/ml): −2.7 fold
- fold change in gene expression compared to an untreated control (PA4142; [Ajoene] 80 μg/ml): −5.1 fold
- fold change in gene expression compared to an untreated control (PA2146; [Ajoene] 10 μg/ml): −1.3 fold
- fold change in gene expression compared to an untreated control (PA2146; [Ajoene] 20 μg/ml): −1.8 fold
- fold change in gene expression compared to an untreated control (PA2146; [Ajoene] 40 μg/ml): −2.6 fold
- fold change in gene expression compared to an untreated control (PA2146; [Ajoene] 80 μg/ml): −7.3 fold
- growth inhibitory effect on P. aeruginosa (P. aeruginosa): no measurable growth inhibitory effect
- rhamnolipid content compared to the untreated culture ([1]; 20 μg/ml ajoene, OD600 nm of 2.0): approximately ⅓
- rhamnolipid content ([1]; 40 μg/ml ajoene): below the detection level
- rhamnolipid present in the sample ([1]; 80 μg/ml ajoene): almost no detectable rhamnolipid
- rhamnolipid content ([1]; 80 μg/ml ajoene): below the detection level
- number of genes down regulated more than 5 fold (P. aeruginosa genes; 10 μg/ml ajoene): 0 genes
- number of genes down regulated more than 5 fold (P. aeruginosa genes; 20 μg/ml ajoene): 0 genes
- number of genes down regulated more than 5 fold (P. aeruginosa genes; 40 μg/ml ajoene): 2 genes
- number of genes down regulated more than 5 fold (P. aeruginosa genes; 80 μg/ml ajoene, out of a total of 5570 P. aeruginosa genes): 11 genes
- number of QS controlled P. aeruginosa genes down regulated by the ajoene treatments (P. aeruginosa genes; out of the total number of 163 QS controlled genes (Hentzer et al.)): 10 genes
